Assay results taken from article PMC6479731 (ACS Synthetic Biology, 2019).

Test system: Cn Mdh2 CT4–1
Settings: read-out: Km,MeOH; 1 mM NAD+, 100 mM glycine-NaOH pH 9.5, 50 mM MgSO4, 37 °C, no activator protein

CO [methanol]
Km: 88.8 ± 7.8 mM
